Read-outs that look alike come from different tables or passages of the source.
What was measured:
[1] = biological target: Agaricus bisporus tyrosinase (AbTYR); experiment: AbTYR inhibition assay; assay type: biochemical
Source text: (§1) No. T3824). Kojic acid was employed as a positive standard. The intramelanosomal domain of hTYR was expressed and purified as previously reported in the literature.[46] The reference compound Thiamidol was purchased from BLDpharm (Shanghai, China).

[2] = ABTS radical scavenging assay; conditions: read-out: Antioxidant activity EC50 (ABTS)
Method: Therefore, we conducted a preliminary assessment of the antioxidant activity of all synthesized target compounds by evaluating their ABTS radical scavenging capacity. The ABTS assay is widely recognized as one of the most reliable methods for measuring antioxidants' ability to neutralize the stable ABTS˙^+ radical cation.
The overall free radical-scavenging capacity of the compounds was evaluated using the ABTS [2,20-azinobis-(3-ethylbenzothiazoline-6-sulfonic acid)] assay according to previously described methods.[45] The method relies on the capacity of antioxidants to scavenge the ABTS˙^+ radical. To generate ABTS˙^+, a 7 mM ABTS solution was mixed with 2.45 mM potassium persulfate in water, and the mixture was incubated in the dark at room temperature for 24 h. Subsequently, 10 μL of sample at varying concentrations was added to 990 μL of the diluted ABTS˙^+ solution. After 1 min of reaction at room temperature, the absorbance was recorded at 734 nm. The reference antioxidant used was 6-hydroxy-2,5,7,8-tetramethylchromane-2-carboxylic acid (Trolox). Antioxidant activity was quantified as EC50, which represents the concentration of compound needed to reduce the initial absorbance by 50%.

[3] = Relative lipophilicity by RP-TLC; assay type: physicochemical; conditions: RP-TLC C18, acetone:water 2:1
Method: Based on the consideration that the lipophilicity of an active molecule exerts a relevant role in skin penetration as well as in the process of crossing the cell membrane, we chose to experimentally estimate the relative lipophilicity of the synthesized compounds 1–5. We employed reverse-phase thin layer chromatography (RP-TLC); the retardation coefficients (RFs) were measured from the chromatograms, thus generating the RM values as an estimation of the relative lipophilicity among the homogenous series of the studied compounds 1–5 in comparison with MehT-3. The Experimental procedure (4.3 Lipophilicity) contains a detailed description of the applied methods.
Experimental relative lipophilicity was determined by employing reversed phase TLC on 20 cm × 20 cm plates coated with C18 silica. The eluant was prepared by mixing acetone and water (2 : 1 (v/v)). The studied compounds and reference substances were dissolved in MeOH to obtain the working solution with a concentration of 2.0 mg mL^−1. Then, we activated the plates by heating at 105 °C for 1 h. From each working solution, a volume of 0.2 μL was spotted to the plates. The measurements were repeated three times with distinct disposition of the compounds on the plate, so that RF values represented the mean values obtained in triplicate. The chromatograms were developed at a distance of 10 cm from the origin in ascending TLC chambers at room temperature. Then, the spots of the substances were visualized by means of a UV lamp at 254 nm. Based on the retardation coefficients (RF) we calculated the relative lipophilicity RM values according to the formula RM = log[(1/RF) − 1];[44] higher RM values predict a higher lipophilicity.

human tyrosinase (hTYR) [4] = biological target: T1, human tyrosinase (hTYR) (Homo sapiens, UniProt P14679); experiment: hTYR inhibition assay; assay type: biochemical
T1 construct: The intramelanosomal domain of hTYR was expressed and purified; made in house
T1 sequence (P14679 19-476 limits assumed): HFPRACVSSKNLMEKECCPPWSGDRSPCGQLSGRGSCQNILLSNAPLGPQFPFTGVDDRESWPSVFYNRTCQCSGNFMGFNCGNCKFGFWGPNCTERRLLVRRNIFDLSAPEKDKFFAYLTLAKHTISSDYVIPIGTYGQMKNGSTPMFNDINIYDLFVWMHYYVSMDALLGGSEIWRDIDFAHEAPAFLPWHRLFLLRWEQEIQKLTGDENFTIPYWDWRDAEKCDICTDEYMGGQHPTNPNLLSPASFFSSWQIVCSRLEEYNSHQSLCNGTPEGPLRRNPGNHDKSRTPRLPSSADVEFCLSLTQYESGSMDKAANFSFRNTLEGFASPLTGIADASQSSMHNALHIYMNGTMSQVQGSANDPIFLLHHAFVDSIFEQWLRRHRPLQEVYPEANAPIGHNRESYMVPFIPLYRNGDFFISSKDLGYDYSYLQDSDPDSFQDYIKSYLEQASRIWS
Source text: as §1

MTT cell viability = assay type: cell-based; conditions: human, HaCaT keratinocyte cells
Method: Based on the inhibitory effects on hTYR and antioxidant properties on the ABTS assay, we focused our attention on compounds 2 and 3, which were further characterized as skin protective agents. In more detail, we evaluated their ability to influence the viability of human skin keratinocyte cell line HaCaT at distinct concentrations ranging from 5 to 50 μM (Fig. 6). […] Cell viability remained above 87% in compound 2 for all concentrations tested.
The 3-(4,5-dimethylthiazol-2-yl)-2,5-diphenyltetrazolium bromide (MTT) technique on human skin keratinocyte cell line (HaCaT; CLS-Cell Lines Service, Eppelheim, Germany) was employed to assess cell viability as reported by Pintus et al.[47] The cells were exposed to the compounds at concentrations ranging from […] for a duration of 24 h. Afterward, MTT reagent was added to each well, followed by incubation at 37 °C for 3 h. Following incubation, the MTT solution was removed from the culture plate, and 100 μL of DMSO solvent was added to dissolve the water-insoluble formazan crystals formed in the cells. The absorbance was then measured at 570 nm using a microplate reader (VANTAstar_BMG LABTECH GmbH, Offenburg, Germany).

HaCaT cells = experiment: Intracellular ROS levels (DCFH-DA), H2O2-induced; assay type: cell-based, human; conditions: 5–50 μM, 2 mM H2O2
Method: To further confirm their antioxidant capacity, we carried out an antioxidant assay in the skin keratinocyte cell line HaCaT. The levels of ROS were measured before and after exposure to H2O2-induced oxidative stress and after treatment with compounds 2 and 3 at various concentrations (5–50 μM).
Cellular ROS levels were measured using the 2′,7′-dichlorofluorescein diacetate (DCFH-DA) method.[48] HaCat cells were exposed to different concentrations of the test compounds, and after 24 h, cells were incubated with DCFH-DA (10 μM) at 37 °C for 30 min and then treated with 2 mM H2O2. The fluorescence intensity of DCF was immediately measured with a fluorescence plate reader (VANTAstar_BMGLABTECH GmbH, Offenburg, Germany).

[5] = parameters: method as in PMID 36675192; conditions: positive control; read-out: Antioxidant activity EC50 (ABTS); cited from earlier work
human tyrosinase (hTYR) [6] = biological target: T1, human tyrosinase (hTYR); conditions: cited from earlier work
[7] = test system: Agaricus bisporus tyrosinase (AbTYR); parameters: method as in PMID 37657271, PMID 36093940; conditions: cited from earlier work

**Q.** For `CC(=O)NCC(=O)N1CCN(c2ccc(O)cc2)CC1` [Compound 5, N-[2-[4-(4-hydroxyphenyl)piperazin-1-yl]-2-oxoethyl]acetamide], which IC50 [1] is on record?
**A.** 4 ± 0.25 µM

**Q.** And the EC50 [2]?
**A.** 10.4 ± 0.1 µM

**Q.** And the “RM (relative lipophilicity)” value [3]?
**A.** −0.65

**Q.** And the IC50 (human tyrosinase (hTYR) [4])?
**A.** 27.2 ± 6.2 µM

**Q.** Which IC50 [1] does the source give for `O=C(O)c1ccccc1C(=O)N1CCN(c2ccc(O)cc2)CC1` [Compound 1, 2-[4-(4-hydroxyphenyl)piperazine-1-carbonyl]benzoic acid] here?
**A.** 40.7 ± 3.19 µM

**Q.** And the EC50 [2]?
**A.** 17.1 ± 0.7 µM

**Q.** What about the IC50 (human tyrosinase (hTYR) [4]) of the same molecule?
**A.** 15.4 ± 1.2 µM

**Q.** With `CCC(=O)N1CCN(c2ccc(O)cc2)CC1` [Compound 4, 1-[4-(4-hydroxyphenyl)piperazin-1-yl]propan-1-one] as the molecule, how does the IC50 [1] read?
**A.** 8.74 ± 0.36 µM

**Q.** What about the EC50 [2] of the same molecule?
**A.** 10.8 ± 0.3 µM

**Q.** What about the IC50 (human tyrosinase (hTYR) [4]) of the same molecule?
**A.** 24.1 ± 3.3 µM

**Q.** Which IC50 [1] does the source give for `O=C(c1ccc(=O)[nH]c1)N1CCN(c2ccc(O)cc2)CC1` [Compound 2, 5-[4-(4-hydroxyphenyl)piperazine-1-carbonyl]pyridin-2(1H)-one] here?
**A.** 13.2 ± 2.24 µM

**Q.** What about the EC50 [2] of the same molecule?
**A.** 9.5 ± 0.2 µM

**Q.** And the viability at 24 h (MTT cell viability; all concentrations tested (5 to 50 μM))?
**A.** > 87%

**Q.** What about the “RM (relative lipophilicity)” value [3] of the same molecule?
**A.** −0.60

**Q.** What about the “H2O2-induced ROS production” value (HaCaT cells) of the same molecule?
**A.** decreased the production of ROS induced by hydrogen peroxide in a dose-dependent manner

**Q.** What about the IC50 (human tyrosinase (hTYR) [4]) of the same molecule?
**A.** 7.8 ± 0.8 µM

**Q.** With `CC(=O)N1CCN(c2ccc(O)cc2)CC1` [Compound 3, 1-[4-(4-hydroxyphenyl)piperazin-1-yl]ethan-1-one] as the molecule, how does the IC50 [1] read?
**A.** 31.8 ± 3.37 µM

**Q.** What about the EC50 [2] of the same molecule?
**A.** 14 ± 0.9 µM

**Q.** What about the viability at 24 h, 50 µM (MTT cell viability; 50 μM) of the same molecule?
**A.** 75%

**Q.** What about the “H2O2-induced ROS production” value (HaCaT cells) of the same molecule?
**A.** decreased the production of ROS induced by hydrogen peroxide in a dose-dependent manner

**Q.** What about the IC50 (human tyrosinase (hTYR) [4]) of the same molecule?
**A.** 5.3 ± 0.9 µM

**Q.** For `Cc1c(C)c2c(c(C)c1O)CCC(C)(C(=O)O)O2` (centres unmarked) [Trolox, 6-hydroxy-2,5,7,8-tetramethylchromane-2-carboxylic acid], which EC50 [5] is on record?
**A.** 13 ± 1.1 µM

**Q.** Which “Mode of inhibition of hTYR (kinetic analyses)” value (human tyrosinase (hTYR) [6]) does the source give for `COc1ccccc1C(=O)N1CCN(c2ccc(O)cc2)CC1` [MehT-3, [4-(4-hydroxyphenyl)piperazin-1-yl](2-methoxyphenyl)methanone] here?
**A.** competitive inhibitor

**Q.** And the “RM (relative lipophilicity)” value [3]?
**A.** −0.17

**Q.** What about the “Mode of inhibition of AbTYR (kinetic analyses)” value [7] of the same molecule?
**A.** competitive inhibitor

**Q.** What about the IC50 ([7]; reference compound) of the same molecule?
**A.** 3.52 ± 0.25 µM
